Experimental data from US9694016B2 (Novartis AG, priority 2013, dated 2017).

The compounds below were run against b-Raf (V600E) (Homo sapiens (Human), UniProt P15056, V600E). Conditions: read-out: b-Raf IC-50; Table 2; AlphaScreen, 3 hours reaction.
b-Raf (V600E), sequence (P15056 whole entry V600E): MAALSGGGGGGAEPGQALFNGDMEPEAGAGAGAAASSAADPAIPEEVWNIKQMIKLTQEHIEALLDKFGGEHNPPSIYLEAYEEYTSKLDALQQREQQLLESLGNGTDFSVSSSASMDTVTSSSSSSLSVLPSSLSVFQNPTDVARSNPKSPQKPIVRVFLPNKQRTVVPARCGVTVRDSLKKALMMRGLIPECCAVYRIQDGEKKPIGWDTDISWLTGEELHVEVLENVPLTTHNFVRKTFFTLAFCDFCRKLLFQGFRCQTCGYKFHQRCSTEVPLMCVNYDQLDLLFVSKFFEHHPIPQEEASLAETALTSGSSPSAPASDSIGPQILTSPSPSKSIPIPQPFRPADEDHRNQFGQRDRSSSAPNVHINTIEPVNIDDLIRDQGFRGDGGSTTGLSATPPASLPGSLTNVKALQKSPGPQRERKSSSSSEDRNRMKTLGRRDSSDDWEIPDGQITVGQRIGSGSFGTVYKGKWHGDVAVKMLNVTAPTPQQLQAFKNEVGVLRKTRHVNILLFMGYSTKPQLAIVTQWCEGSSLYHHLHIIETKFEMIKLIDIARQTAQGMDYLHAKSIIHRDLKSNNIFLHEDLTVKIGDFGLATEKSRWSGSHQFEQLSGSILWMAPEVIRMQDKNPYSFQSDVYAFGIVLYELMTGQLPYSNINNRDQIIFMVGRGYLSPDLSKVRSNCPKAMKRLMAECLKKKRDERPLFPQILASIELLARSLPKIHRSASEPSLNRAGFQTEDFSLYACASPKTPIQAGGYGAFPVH

SMILES | IC50
Cc1ncc(NC(=O)c2ccnc(C(C)(C)F)c2)cc1-c1cnc(Cl)c(N2CCOCC2)c1 [Example 290, N-(6′-chloro-2-methyl-5′-morpholino-[3,3-bipyridin]-5-yl)-2-(2-fluoropropan-2-yl)isonicotinamide] | 6 nM
Cc1ncc(NC(=O)c2ccnc(C(F)(F)F)c2)cc1-c1cnc(Cl)c(N2CCOCC2)c1 [Example 291, N-(6′-chloro-2-methyl-5′-morpholino-[3,3′-bipyridin]-5-yl)-2-(trifluoromethyl)isonicotinamide] | 2.3 nM
Cc1ncc(NC(=O)c2cnnc(C(F)(F)F)c2)cc1-c1cnc(Cl)c(N2CCOCC2)c1 [Example 292, N-(6′-chloro-2-methyl-5′-morpholino-[3,3′-bipyridin]-5-yl)-6-(trifluoromethyl)pyridazine-4-carboxamide] | 3.8 nM
Cc1ncc(NC(=O)c2cnnc(C(C)(C)C#N)c2)cc1-c1cnc(Cl)c(N2CCOCC2)c1 [Example 293, N-(6′-chloro-2-methyl-5′-morpholino-[3,3′-bipyridin]-5-yl)-6-(2-cyanopropan-2-yl)pyridazine-4-carboxamide] | 32.3 nM
Cc1ncc(NC(=O)c2ccnc(C(F)(F)F)c2)cc1-c1cncc(N2CCOCC2)c1 [Example 295] | 3.6 nM
Cc1ncc(NC(=O)c2cnnc(C(C)(C)C#N)c2)cc1-c1cncc(N2CCOCC2)c1 [Example 296, 6-(2-cyanopropan-2-yl)-N-(2-methyl-5′-morpholino-[3,3′-bipyridin]-5-yl)pyridazine-4-carboxamide] | 24.7 nM
Cc1ncc(NC(=O)c2ccnc(C(C)(C)C#N)c2)cc1-c1cncc(N2CCOCC2)c1 [Example 297, 2-(2-cyanopropan-2-yl)-N-(2-methyl-5′-morpholino-[3,3′-bipyridin]-5-yl)isonicotinamide] | 18.8 nM
Cc1ncc(NC(=O)c2cc(C(F)(F)F)ccn2)cc1-c1cnc(OCCO)c(N2CCOCC2)c1 [Example 301, N-(6′-(2-hydroxyethoxy)-2-methyl-5′-morpholino-[3,3′-bipyridin]-5-yl)-4-(trifluoromethyl)picolinamide] | 3.2 nM
Cc1ccc(NC(=O)c2cnnc(C3(C#N)CC3)c2)cc1-c1cnc(OC2CCOCC2)c(N2CCOCC2)c1 [Example 302, 6-(1-cyanocyclopropyl)-N-(4-methyl-3-(5-morpholino-6-((tetrahydro-2H-pyran-4-yl)oxy)pyridin-3-yl)phenyl)pyridazine-4-carboxamide] | 0.6 nM
CCOc1ncc(-c2cc(NC(=O)c3cnnc(C(C)(C)C#N)c3)cnc2C)cc1N1CCOC[C@H]1C [Example 303, (R)-6-(2-cyanopropan-2-yl)-N-(6′-ethoxy-2-methyl-5′-(3-methylmorpholino)-[3,3′-bipyridin]-5-yl)pyridazine-4-carboxamide] | 100 nM
CCOc1ncc(-c2cc(NC(=O)c3cnnc(C(C)(C)F)c3)ccc2C)cc1N1CCOCC1 [Example 304, N-(3-(6-ethoxy-5-morpholinopyridin-3-yl)-4-methylphenyl)-6-(2-fluoropropan-2-yl)pyridazine-4-carboxamide] | 0.9 nM
Cc1ncc(NC(=O)c2cccc(C(F)(F)F)c2)cc1-c1cnc(N(C)C)c(N2CCOCC2)c1 [Example 307, N-(6′-(dimethylamino)-2-methyl-5′-morpholino-[3,3′-bipyridin]-5-yl)-3-(trifluoromethyl)benzamide] | 0.6 nM
Cc1ncc(NC(=O)c2ccnc(C(C)C)c2)cc1-c1cnc(N(C)C)c(N2CCOCC2)c1 [Example 308, N-(6′-(dimethylamino)-2-methyl-5′-morpholino-[3,3′-bipyridin]-5-yl)-2-isopropylisonicotinamide] | 0.8 nM
Cc1ncc(NC(=O)c2cccc(C(F)(F)F)c2)cc1-c1cnc(O[C@H]2CCOC2)c(N2CCOCC2)c1 [Example 310, (S)—N-(2-methyl-5′-morpholino-6′-((tetrahydrofuran-3-yl)oxy)-[3,3′-bipyridin]-5-yl)-3-(trifluoromethyl)benzamide] | 1.8 nM
Cc1ncc(NC(=O)c2cccc(C(F)(F)F)c2)cc1-c1cnc(O[C@@H]2CCOC2)c(N2CCOCC2)c1 [Example 311, (R)—N-(2-methyl-5′-morpholino-6′-((tetrahydrofuran-3-yl)oxy)-[3,3′-bipyridin]-5-yl)-3-(trifluoromethyl)benzamide] | 2.4 nM
COCCOc1ncc(-c2cc(NC(=O)c3cccc(C(F)(F)F)c3)cnc2C)cc1N1CCOCC1 [Example 312, N-(6′-(2-methoxyethoxy)-2-methyl-5′-morpholino-[3,3′-bipyridin]-5-yl)-3-(trifluoromethyl)benzamide] | 4 nM
Cc1ncc(NC(=O)c2ccnc(C(C)C)c2)cc1-c1cnc(OC2CCOCC2)c(N2CCOCC2)c1 [Example 313, 2-isopropyl-N-(2-methyl-5′-morpholino-6′-((tetrahydro-2H-pyran-4-yl)oxy)-[3,3′-bipyridin]-5-yl)isonicotinamide] | 7 nM
Cc1ncc(NC(=O)c2ccnc(C(F)(F)F)c2)cc1-c1cnc(OC2CCOCC2)c(N2CCOCC2)c1 [Example 314, N-(2-methyl-5′-morpholino-6′-((tetrahydro-2H-pyran-4-yl)oxy)-[3,3′-bipyridin]-5-yl)-2-(trifluoromethyl)isonicotinamide] | 6 nM
Cc1ncc(NC(=O)c2cccc(C(F)(F)F)c2)cc1-c1cnc(O[C@H]2CC[C@H](O)CC2)c(N2CCOCC2)c1 [Example 316, N-(6′-(((1r,4r)-4-hydroxycyclohexyl)oxy)-2-methyl-5′-morpholino-[3,3′-bipyridin]-5-yl)-3-(trifluoromethyl)benzamide] | 3.1 nM
Cc1ncc(NC(=O)c2cccc(C(F)(F)F)c2)cc1-c1cnc(OC2CC3(COC3)C2)c(N2CCOCC2)c1 [Example 322, N-(6′-(2-oxaspiro[3.3]heptan-6-yloxy)-2-methyl-5′-morpholino-[3,3′-bipyridin]-5-yl)-3-(trifluoromethyl)benzamide] | 1.1 nM
COc1ncc(-c2cc(NC(=O)c3ccnc(C(C)C)c3)cnc2C)cc1N1CCOCC1 [Example 323, 2-isopropyl-N-(6′-methoxy-2-methyl-5′-morpholino-[3,3′-bipyridin]-5-yl)isonicotinamide] | 12.9 nM

Other lines, results leading:

IC50 | SMILES
15.6 nM | Cc1ncc(NC(=O)c2ccnc(C(C)(C)C#N)c2)cc1-c1cnc(Cl)c(N2CCOCC2)c1 [Example 289, N-(6′-chloro-2-methyl-5′-morpholino-[3,3-bipyridin]-5-yl)-2-(2-cyanopropan-2-yl)isonicotinamide]
10.8 nM | Cc1ncc(NC(=O)c2ccnc(C(C)(C)F)c2)cc1-c1cncc(N2CCOCC2)c1 [Example 294, 2-(2-fluoropropan-2-yl)-N-(2-methyl-5′-morpholino-[3,3′-bipyridin]-5-yl)isonicotinamide]
3.9 nM | Cc1ncc(NC(=O)c2ccnc(C(C)(C)F)c2)cc1-c1cnc(F)c(N2CCOCC2)c1 [Example 298, N-(6′-fluoro-2-methyl-5′-morpholino-[3,3′-bipyridin]-5-yl)-2-(2-fluoropropan-2-yl)isonicotinamide]
6.9 nM | Cc1ncc(NC(=O)c2ccnc(C(C)(C)F)c2)cc1-c1cnc(OCCO)c(N2CCOCC2)c1 [Example 299, 2-(2-fluoropropan-2-yl)-N-(6′-(2-hydroxyethoxy)-2-methyl-5′-morpholino-[3,3′-bipyridin]-5-yl)isonicotinamide]
14.6 nM | Cc1ncc(NC(=O)c2ccnc(C(C)(C)C#N)c2)cc1-c1cnc(OCCO)c(N2CCOCC2)c1 [Example 300, 2-(2-cyanopropan-2-yl)-N-(6′-(2-hydroxyethoxy)-2-methyl-5′-morpholino-[3,3′-bipyridin]-5-yl)isonicotinamide]
1.1 nM | CCOc1ncc(-c2cc(C(=O)Nc3ccnc(C(F)(F)F)c3)ccc2C)cc1N1CCOCC1 [Example 306, 3-(6-ethoxy-5-morpholinopyridin-3-yl)-4-methyl-N-(2-(trifluoromethyl)pyridin-4-yl)benzamide]
9.2 nM | Cc1ncc(NC(=O)c2cccc(C(F)(F)F)c2)cc1-c1cnc(OC2CCOCC2)c(N2CCOCC2=O)c1 [Example 309, N-(2-methyl-5′-(3-oxomorpholino)-6′-((tetrahydro-2H-pyran-4-yl)oxy)-[3,3′-bipyridin]-5-yl)-3-(trifluoromethyl)benzamide]
0.8 nM | Cc1ncc(NC(=O)c2cccc(C(F)(F)F)c2)cc1-c1cnc(OC2COC2)c(N2CCOCC2)c1 [Example 315]
1.6 nM | Cc1ncc(NC(=O)c2cccc(C(F)(F)F)c2)cc1-c1cnc(O[C@H]2CC[C@@H](O)CC2)c(N2CCOCC2)c1 [Example 317, N-(6′-(((1s,4s)-4-hydroxycyclohexyl)oxy)-2-methyl-5′-morpholino-[3,3′-bipyridin]-5-yl)-3-(trifluoromethyl)benzamide]
24.8 nM | Cc1ncc(NC(=O)c2cccc(C(F)(F)F)c2)cc1-c1cnc(OC2CN(C)C2)c(N2CCOCC2)c1 [Example 321, N-(2-methyl-6′-((1-methylazetidin-3-yl)oxy)-5′-morpholino-[3,3′-bipyridin]-5-yl)-3-(trifluoromethyl)benzamide]
7.4 nM | COc1ncc(-c2cc(NC(=O)c3ccnc(C(F)(F)F)c3)cnc2C)cc1N1CCOCC1 [Example 324, N-(6′-methoxy-2-methyl-5′-morpholino-[3,3′-bipyridin]-5-yl)-2-(trifluoromethyl)isonicotinamide]
300 nM | Cc1ncc(NC(=O)c2cccc(C(F)(F)F)c2)cc1-c1cnc(OC2CNC2)c(N2CCOCC2)c1 [Example 325, N-(6′-(azetidin-3-yloxy)-2-methyl-5′-morpholino-[3,3′-bipyridin]-5-yl)-3-(trifluoromethyl)benzamide]
3.7 nM | Cc1ncc(NC(=O)c2cccc(C(F)(F)F)c2)cc1-c1cnc(C(C)(C)C#N)c(N2CCOCC2)c1 [Example 326, N-(6′-(2-cyanopropan-2-yl)-2-methyl-5′-morpholino-[3,3′-bipyridin]-5-yl)-3-(trifluoromethyl)benzamide]
3.9 nM | Cc1ncc(NC(=O)c2cccc(C(F)(F)F)c2)cc1-c1cnc(CS(C)(=O)=O)c(N2CCOCC2)c1 [Example 327, N-(2-methyl-6′-((methylsulfonyl)methyl)-5′-morpholino-[3,3′-bipyridin]-5-yl)-3-(trifluoromethyl)benzamide]
